Data published in ChEMBL document CHEMBL1157163, “In vitro permeability and metabolic stability of bile pigments and the effects of hydrophilic and lipophilic modification of biliverdin” (Bioorg Med Chem, 2008).

Experiments:
[1] = Toxicity against rat erythrocytes assessed as hemolysis upto 1000 uM; format: cell-based; conditions: erythrocyte
[2] = Apparent permeability across human Caco-2 cells in presence of BSA in basolateral chamber; format: ADME, cell-based
[3] = Metabolic stability in presence of BSA; format: ADME
Caco-2 = assay: Metabolic stability in human Caco-2 cell homogenate; format: ADME, cell-based
[4] = Toxicity against rat erythrocytes assessed as hemolysis upto 1000 uM in presence of BSA; format: cell-based; conditions: erythrocyte
[5] = Apparent permeability across human Caco-2 cells; format: ADME, cell-based
[6] = Toxicity against rat erythrocytes assessed as induction of hemolysis at >= 1000 uM; format: cell-based; conditions: erythrocyte
[7] = Toxicity against rat erythrocytes assessed as decrease in hemolysis in presence of BSA; format: cell-based; conditions: erythrocyte

| SMILES | Activity [1] | Papp [2] | Stability [3] | Stability (Caco-2) | Activity [4] | Papp [5] | Activity [6] | Activity [7] |
| --- | --- | --- | --- | --- | --- | --- | --- | --- |
| C=CC1=C(C)/C(=C/c2[nH]c(Cc3[nH]c(/C=C4\NC(=O)C(C)=C4C=C)c(C)c3CCC(=O)NCCS(=O)(=O)O)c(CCC(=O)NCCS(=O)(=O)O)c2C)NC1=O [BILIRUBIN DITAURATE] | Non-toxic | 3.52 ×10⁻⁶ cm/s | Stable | Stable | Non-toxic | 0.39 ×10⁻⁶ cm/s | – | – |
| C=CC1=C(C)/C(=C/c2[nH]c(Cc3[nH]c(/C=C4\NC(=O)C(C)=C4C=C)c(C)c3CCC(=O)O)c(CCC(=O)O)c2C)NC1=O [BILIRUBIN] | – | 1.04 ×10⁻⁶ cm/s | 0.33 %/min | – | – | 0.02 ×10⁻⁶ cm/s | Toxic | Non-toxic |
| C=CC1=C(C)/C(=C/C2=NC(=C\c3[nH]c(/C=C4\NC(=O)C(C)=C4C=C)c(C)c3CCC(=O)N[C@H]3C(O)O[C@H](CO)[C@@H](O)[C@@H]3O)/C(CCC(=O)N[C@@H]3C(O)O[C@@H](CO)[C@H](O)[C@H]3O)=C2C)NC1=O (some centres undefined) [BILIVERDIN DIGLUCOSAMINE] | – | – | Stable | Stable | – | – | – | – |
| C=CC1=C(C)/C(=C/C2=NC(=C\c3[nH]c(/C=C4\NC(=O)C(C)=C4C=C)c(C)c3CCC(=O)O)/C(CCC(=O)O)=C2C)NC1=O [BILIVERDIN] | Non-toxic | 3.7 ×10⁻⁶ cm/s | Stable | Stable | Non-toxic | 1.01 ×10⁻⁶ cm/s | – | – |
